Reference: patent publication US20220241261A1, “COMBINATIONS OF INHIBITORS OF IRAK4 WITH INHIBITORS OF BTK” (Bayer Pharma Aktiengesellschaft, priority 2015, published 2022)

Tests used:
[1] = tested on: ABC-DLBCL cell lines TMD-8 and HBL-1 and OCI-LY10; test: Cell proliferation measurement (Cell Titer Glo, combination, isobolograms); assay type: cell-based, human; conditions: combination with ibrutinib or RN486 or AVL-292 or CGI-1746; TMD-8, HBL-1, OCI-LY10 cells; 72 h
[2] = tested on: secretion of TNF-α in THP-1 cells; test: TNF-α secretion in THP-1 cells (LPS-triggered, HTRF); assay type: cell-based; conditions: Homo sapiens, LPS stimulation, 17 h, read-out: IC50 with respect to the secretion of TNF-α in THP-1 cells
relapsed DLBCL = conditions: phase 2 study; cited from earlier work
[3] = tested on: human TMD-8 ABC-DLBCL tumours; conditions: TMD-8 xenograft, C.B-17 SCID mice, ibrutinib 10 mg/kg

IC50 [2] [nM] | Compound | antitumour (anti-proliferative) action of the combination compared to single treatments [1] | patients responded to treatment (relapsed DLBCL) [%] | Max. weight loss ([3]; QD p.o., Example 11 40 mg/kg, change versus initial body weight) [%] | effect on the tumour growth of TMD-8 (in words) ([3]; oral daily, Example Compound 11 40 mg/kg)
100 | Cc1nc(C(=O)Nc2cc3cn(CCC(C)(C)O)nc3cc2C(C)(C)O)ccc1F [Example 19, 5-Fluoro-N-[2-(3-hydroxy-3-methylbutyl)-6-(2-hydroxypropan-2-yl)-2H-indazol-5-yl]-6-methylpyridine-2-carboxamide] | distinct rise in antitumour action was almost always recorded |  |  | 
 | C=CC(=O)N1CCC[C@@H](n2nc(-c3ccc(Oc4ccccc4)cc3)c3c(N)ncnc32)C1 [Ibrutinib, 1-{(3R)-3-[4-amino-3-(4-phenoxyphenyl)-1H-pyrazolo[3,4-d]pyrimidin-1-yl]piperidin-1-yl}prop-2-en-1-one] |  | 40 | −5 | moderate inhibitory effect
100 | CC(C)(O)CCn1cc2cc(NC(=O)c3cccc(C(F)F)n3)c(C(C)(C)O)cc2n1 [Example 13, 6-(Difluoromethyl)-N-[2-(3-hydroxy-3-methylbutyl)-6-(2-hydroxypropan-2-yl)-2H-indazol-5-yl]pyridine-2-carboxamide] | distinct rise in antitumour action was almost always recorded |  |  | 
